Our source for the IC50 values is patent publication US7732444B2, “2-(amino-substituted)-4-aryl pyrimidines and related compounds useful for treating inflammatory diseases” (Millennium Pharmaceuticals, Inc., priority 2004, dated 2010).

For this assay, the target named is T1, full length PKC θ (Homo sapiens, UniProt Q04759).
T1 construct: 15 μL of full length PKC θ (Panvera Corporation); purchased Panvera Corporation
T1 sequence (Q04759 whole entry): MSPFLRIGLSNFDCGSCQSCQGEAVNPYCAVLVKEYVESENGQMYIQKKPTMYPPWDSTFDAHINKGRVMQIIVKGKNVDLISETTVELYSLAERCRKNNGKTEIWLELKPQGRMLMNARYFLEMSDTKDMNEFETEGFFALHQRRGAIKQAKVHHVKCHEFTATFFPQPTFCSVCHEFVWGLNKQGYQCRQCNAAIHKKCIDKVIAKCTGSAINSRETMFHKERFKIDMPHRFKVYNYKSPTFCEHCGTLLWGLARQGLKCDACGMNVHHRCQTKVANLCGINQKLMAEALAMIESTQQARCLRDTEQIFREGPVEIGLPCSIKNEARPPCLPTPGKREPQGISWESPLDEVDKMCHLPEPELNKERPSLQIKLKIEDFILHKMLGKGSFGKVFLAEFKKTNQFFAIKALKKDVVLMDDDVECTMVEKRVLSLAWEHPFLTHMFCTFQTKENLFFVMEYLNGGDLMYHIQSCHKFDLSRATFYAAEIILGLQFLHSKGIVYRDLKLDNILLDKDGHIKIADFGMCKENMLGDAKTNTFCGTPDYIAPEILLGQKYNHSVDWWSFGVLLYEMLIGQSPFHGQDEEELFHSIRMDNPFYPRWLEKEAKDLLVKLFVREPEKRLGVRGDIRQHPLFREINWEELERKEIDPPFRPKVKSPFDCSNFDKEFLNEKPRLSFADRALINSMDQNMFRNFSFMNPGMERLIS
The assay is described as follows: PKC-theta isoform inhibition assay (HTRF, 384 well plate). The assay is classed as biochemical. Particulars: full length PKC θ at 27 pM, peptide substrate 300 nM + 3 μM ATP, HTRF readout. On the procedure:
An in vitro assay for detecting and measuring inhibition activity against PKC-theta isoform by candidate pharmacological agents is useful for evaluating and selecting a compound that modulates PKC-theta isoform. An IC50 value can be calculated after running the assay. Following is an assay protocol for measuring PKC-theta isoform.
Per well of a 384 well plate, compounds at various concentrations in 5 μL of 20% DMSO were pre-incubated for about 30 minutes at about 25° C. with 15 μL of full length PKC θ (Panvera Corporation) at 27 pM in an assay buffer (25 mM Hepes, pH 7.5, 5 mM DTT, 10 mM MgCl2, 10 mM 2-glycerophosphate, 12.5 μg/mL 1,2-dioleoyl-rac-glycerol, 10 μg/mL L-α-phosphatidyl-L-serine, 0.1% Bovine Serum Albumin). 10 μL of peptide substrate (biotin-(CH2)6— RFARKGSLRQKNV —CONH2) at 300 nM+3 μM ATP were added to each well and incubated for about 1 hour before quenching with 10 μL of 250 mM EDTA. 40 μL of detection buffer (25 mM Hepes, pH 7.5, 100 mM KF, 0.1% Bovine Serum Albumin, 0.01% Tween20) containing 2 nM anti-phospho antibody 2B9 (MBL International) labeled with europium cryptate (Cis-Bio International) and 0.0064 μg/mL streptavidin-allophycocyanin (Prozyme) was added to each well and incubated for two hours. Signal was then read on a Discovery HTRF (Packard).
Background: In TR-FRET formats the signal depends on donor and acceptor labels being close together.
By IC50 is commonly meant the point on the concentration scale where inhibition reaches its midpoint. For the compound `CCNCc1cccc(-c2ccnc(NCCc3ccc(O)cc3)n2)c1` [Compound 131, 4-{2-[4-(3-Ethylaminomethyl-phenyl)-pyrimidin-2-ylamino]-ethyl}-phenol], the IC50 was below 0.1 µM.
For `CC(C)NCc1cccc(-c2ccnc(NCCc3ccc(O)c(Cl)c3)n2)c1` [Compound 132, 2-Chloro-4-(2-{4-[3-(isopropylamino-methyl)-phenyl]-pyrimidin-2-ylamino}-ethyl)-phenol], the IC50 was below 0.1 µM.
As for `CS(=O)(=O)N(Cc1cccc(-c2nc(NCCc3ccc(O)cc3)ncc2F)c1)C1CCNCC1` [Compound 134, N-(3-{5-Fluoro-2-[2-(4-hydroxy-phenyl)-ethylamino]-pyrimidin-4-yl}-benzyl)-N-piperidin-4-yl-methanesulfonamide], the 50% inhibitory concentration (IC50) is below 0.1 µM.
Consider `CS(=O)(=O)N(Cc1cccc(-c2nc(NCCc3ccc(O)c(Cl)c3)ncc2F)c1)C1CCNCC1` [Compound 142, N-(3-{2-[2-(3-Chloro-4-hydroxy-phenyl)-ethylamino]-5-fluoro-pyrimidin-4-yl}-benzyl)-N-piperidin-4-yl-methanesulfonamide], for which the IC50 is below 0.1 µM.
As for `CCN(CCCN)Cc1cccc(-c2nc(NCCc3ccc(O)c(F)c3)ncc2F)c1` [Compound 143, 4-{2-[4-(3-{[(3-Amino-propyl)-ethyl-amino]-methyl}-phenyl)-5-fluoro-pyrimidin-2-ylamino]-ethyl}-2-fluoro-phenol], the IC50 is below 0.1 µM.
Consider `[2H]C([2H])(CNc1nccc(-c2cccc(CN3CCNC[C@@H]3C)c2)n1)c1cc(F)cc(F)c1` [Compound 200, [2-(3,5-Difluoro-phenyl)-2,2 dideuteroethyl]-{4-[3-(2(S)-methyl-piperazin-1-ylmethyl)-phenyl]-pyrimidin-2-yl}-amine], for which the IC50 is below 0.1 µM.
Next, `CC(C)(C)NCc1cccc(-c2ccnc(NCCc3ccc(O)c(Cl)c3)n2)c1` [Compound 218, 4-(2-{4-[3-(tert-Butylamino-methyl)-phenyl]-pyrimidin-2ylamino}-ethyl)-2-chloro-phenol]: below 0.1 µM; `C[C@H]1CNCC[C@H]1NCc1cccc(-c2ccnc(NCCc3ccc(O)cc3)n2)c1` [Compound 249, 4-[2-(4-{3-[(3(S)-Methyl-piperidin-4(R)-ylamino)-methyl]-phenyl}-pyrimidin-2-ylamino)-ethyl]-phenol]: below 0.1 µM.
Consider `NC(=O)C1CNCCN1Cc1cccc(-c2ccnc(NCCc3ccc(O)cc3)n2)c1` (stereo not shown) [Compound 254, 1-(3-{2-[2-(4-Hydroxy-phenyl)-ethylamino]-pyrimidin-4-yl}-benzyl)-piperazine-2-carboxylic acid amide], for which the IC50 was below 0.1 µM.
On to `Oc1ccc(CCNc2nccc(-c3cccc(CN4CC5CC4CN5)c3)n2)cc1Cl` (stereo not shown) [Compound 265, 2-Chloro-4-(2-{4-[3-(2,5-diaza-bicyclo[2.2.1]hept-2-ylmethyl)-phenyl]-pyrimidin-2-ylamino}-ethyl)-phenol], for which the IC50 is below 0.1 µM.
For `Oc1ccc(CCNc2nccc(-c3cccc(CN4CC5CC4CN5)c3)n2)cc1` (stereo not shown) [Compound 266, 4-(2-{4-[3-(2,5-Diaza-bicyclo[2.2.1]hept-2-ylmethyl)-phenyl]-pyrimidin-2-ylamino}-ethyl)-phenol], the half-inhibitory concentration (IC50) is below 0.1 µM.
To `C[C@H]1CNCCN1S(=O)(=O)c1cccc(-c2ccnc(NCCc3ccc(O)c(Cl)c3)n2)c1` [Compound 278] belongs below 0.1 µM; to `Cc1c(CN2CCNC[C@@H]2C)cccc1-c1ccnc(NCCc2ccc(O)cc2)n1` [Compound 284, 4-(2-(4-(2-methyl-3-(((S)-2-methylpiperazin-1-yl)methyl)phenyl)pyrimidin-2-ylamino)ethyl)phenol], below 0.1 µM; to `C[C@H]1CNCCN1Cc1cc(-c2ccnc(NCCc3ccc(O)cc3)n2)ccc1F` [Compound 286, 4-(2-(4-(4-fluoro-3-(((S)-2-methylpiperazin-1-yl)methyl)phenyl)pyrimidin-2-ylamino)ethyl)phenol], below 0.1 µM.
Next, `CCN(CCC1CCCCN1)Cc1cccc(-c2ccnc(NCCc3ccc(O)c(Cl)c3)n2)c1` (stereo not shown) [Compound 289, 2-chloro-4-(2-(4-(3-((ethyl(2-(piperidin-2-yl)ethyl)amino)methyl)phenyl)pyrimidin-2-ylamino)ethyl)phenol]: below 0.1 µM.
Next, `Oc1ccc(CCNc2nccc(-c3cccc(CNCCc4ccccn4)c3)n2)cc1Cl` [Compound 292, 2-chloro-4-(2-(4-(3-((2-(pyridinyl-2-yl)ethylamino)methyl)phenyl)pyrimidin-2-ylamino)ethyl)phenol]: below 0.1 µM.
